Experiment: Human HepG2 cell viability assay in 384 well format
Format: toxicity, cell-based
Parameters: dose 125 nL, time 70.5 hour; concentration not given beside the values
Settings: HepG2 cells, read-out: Inhibition

SMILES | cytotoxicity at 70.5 h [%]
Cc1ccc2c(n1)N(CCn1cccn1)CCN(S(C)(=O)=O)C2 | 27.2
CN(Cc1c(F)cccc1Cl)C(=O)c1cnn(CCN2CCCCC2)c1 | 18.7
NC(=O)NCCC(=O)NCc1nn(-c2ccccc2)c2c1CCC2 | -16.4
COc1ccc(C[C@H]2CN(C(=O)c3cc(C)no3)CC[C@H]2OC)cc1 | -5.12
CN1CCC(N(CCc2ccccc2)C(=O)COCC2CCCO2)CC1 (centres undefined) | -0.746
c1cncc(N2CCCC3(CCN(CCN4CCCC4)CC3)C2)c1 | -1.3
O=C(NCCn1ccc(-c2ccccn2)n1)C1CCC1 | 1.58
CN1CCC(CN(C)S(=O)(=O)CC2CCCCC2)CC1 | 11.1
O=C(Cn1cc(Cl)cn1)Nc1ccc2c(c1)OCO2 | -2
O=C(NCc1ccco1)[C@@]12CCO[C@@H]1CCN(C1CCC1)C2 | 2.1
COC(=O)c1ccccc1NC(=O)c1c(C)cn(C)c1CC(=O)O | 18.3
O=C(CO[C@@H]1CC[C@H]2[C@H]1OCCN2CC1CCOCC1)N1CCCC1 | -0.662
CC(C)=CCN1CCc2onc(-c3ccc(F)c(F)c3)c2C1 | -11.7
CCc1noc(C(C)N2CCN(CC(=O)N3CCOCC3)CC2)n1 (centres undefined) | -4.7
Cc1nc(C2NC3(CCCC3)C(=O)N2CC2CC2)cs1 (centres undefined) | -5.61
CN(Cc1ccccc1-n1cccn1)C[C@@H]1CCCN2CCCC[C@H]12 | -8.12
CCN(CC)C(=O)N1CCN(CCc2ccncc2)CC1 | -7.09
COc1ccc(NC(=O)N2CCN(c3ncccn3)CC2)cn1 | -5.14
CC(c1cccc(-c2nccn2CCc2cn[nH]c2)c1)N(C)C (centres undefined) | 4.99
COc1ccc(Nc2nc3c(C)nn(C)c3c(=O)n2C)cc1 | 29.7
CC(=O)N(Cc1ncc(C)o1)C1CCN(CCOc2ccccc2)C1 (centres undefined) | 17.4
CNC(=O)CC1CCN(C(=O)NCC2(c3ccccc3F)CC2)CC1 | -3.18
CC(NCc1ccco1)c1nnc2n1CCCC2 (centres undefined) | -5.13

SMILES | cytotoxicity at 70.5 h [%]
Cc1ccc(C(=O)N2C[C@H](OCC3CCOCC3)[C@H]3OCCC[C@H]32)o1 | 0.644
N#Cc1cccc(CN2CCCC2Cn2cccn2)c1 (centres undefined) | -1.88
NC(=O)Cc1csc(NC(=O)C2CSCCC(=O)N2)n1 (centres undefined) | 1.67
CC(C)n1cc2cc(NC(=O)Cn3cnnn3)ccc2n1 | -7.92
c1cn(Cc2nnc(C3CCN(C4CCCCC4)CC3)n2C2CC2)cn1 | -1.01
CCC(C)(O)CNc1ccc(S(=O)(=O)C(F)F)cc1 (centres undefined) | -5.3
CCCn1ncc(CN(Cc2cccnc2)Cc2ccsc2)c1C | 16.8
Cc1cnc(C(C)(C)NC(=O)NCc2ccon2)s1 | -9.99
O=S(=O)(Nc1cnc(N2CCCC2)nc1)c1ccc(C(F)(F)F)cc1 | 31.4
O=C(CCc1nc(Cl)n[nH]1)N1C[C@H](CO)C[C@H](CN2CCCC2)C1 | -7.42
Cc1cc(N(C)CCN(C)C2CCCC2)n2nc(C)cc2n1 | -1.99
CCC(CC)C(O)CNC(=O)Nc1cc(C)nn1C (centres undefined) | -17.8
COc1ccnc(N2CCC3(CCCN(CC4CC4)C3=O)C2)n1 (centres undefined) | -6.47
CCOCc1nc(-c2ccc(F)cc2Cl)n(C2CCN(C)CC2)n1 | -17.9
CC(C)(C)c1noc(CCCC(=O)N2CCNC(=O)CC2)n1 | -6.5
N[C@@H]1c2ccccc2C2(CCN(c3cccc(C(F)(F)F)n3)CC2)[C@H]1O | 5.4
CSCC[C@@H]1CN2CCC[C@H]2CN1Cc1coc2ccc(Cl)cc2c1=O | -5.47
CC(=O)Nc1nc(C(=O)NC(C)c2cccnc2)cs1 (centres undefined) | -6.5
CC(C)c1nnc(CNc2ccc(SC(F)(F)F)cc2)o1 | 36.9
O=C(c1cnc2ccccc2c1)N1CCCC(O)(CN2CCCC2)C1 (centres undefined) | -0.693
Cc1nonc1CN(C)Cc1c[nH]nc1-c1ccc(F)cc1F | -14.1
Cc1nc(-c2ccoc2)n(CC(=O)N(C)CC(C)C)c1C | -4.77
CNC(=O)CS(=O)(=O)C1CCN(S(=O)(=O)c2cccc(Cl)c2C)CC1 | -9.92

SMILES | cytotoxicity at 70.5 h [%]
Cc1nnc(SCCC(=O)N(C)Cc2ccc(Cl)s2)[nH]1 | -14.2
CCc1cnc(C)nc1NCCN1CCC(O)CC1 | 9.55
CC(C(=O)NCC1CCN(c2ccncc2)CC1)S(C)(=O)=O (centres undefined) | -7.42
Cc1nccc(CNc2cc(N3CCCC3CO)ncn2)n1 (centres undefined) | 2.68
Cc1cccc(I)c1C(=O)NCc1ncc[nH]1 | -10.8
c1cn(-c2nccnc2C2CCCN(C3CCOCC3)C2)cn1 (centres undefined) | -5.56
Cc1ccc(CC(=O)N2CCCC(n3nc(C)cc3C)C2)cn1 (centres undefined) | -9.71
c1ccc(Cn2ccnc2CNC2CCCOc3ccccc32)cc1 (centres undefined) | -6.62
CS(=O)(=O)NC[C@]1(O)CCN(C(=O)Cc2cccs2)C[C@H]1O | 12.2
CCOCc1ncn2c1CN(C(=O)c1ccoc1)CC2 | -12.2
COc1ccc(NC(=O)c2cc3c([nH]c2=O)CCCC3=O)c(OC)c1 | -10.9
CNc1nccc(-c2cn(C)nc2C)n1 | 1.94
Cc1ccc2nc(C)cc(C(=O)N3C[C@H]4CCC[C@@]4(CO)C3)c2c1 | -6.32
Cc1nc(C)n(CC2CN(Cc3cccnc3)Cc3nccn3C2)n1 (centres undefined) | -1.38
CCOC(=O)NC(=O)CSC(C)c1ccccc1F (centres undefined) | -14.4
CC(NC(=O)NC1CCN(Cc2ccncc2)CC1)c1cccc(F)c1 (centres undefined) | -6.53
Cc1ccc(CNCC2Cn3nnc(-c4cccc(F)c4)c3CO2)o1 (centres undefined) | -2
Cc1ccc(-c2ccc(Cl)nn2)cc1S(N)(=O)=O | -7.63
Cc1noc(CS(=O)(=O)C(C)C(=O)N(C)c2ccccc2)n1 (centres undefined) | -23.3
O=c1cc(N2CCOCC2)cnn1CCc1ccc(F)cc1 | -1.15
CC1COCCN1Cc1nc(-c2ccsc2)no1 (centres undefined) | -3.54
O=C([C@H]1COC[C@H]2CN(CC3CCC3)C[C@H]21)N1CCOCC1 | -6.01
CCOCc1nn(C)c2c1CN(Cc1cccs1)CC2 | -7.58

SMILES | cytotoxicity at 70.5 h [%]
CNC(=O)N1CCC2(COCc3c(C)nc(NCc4ccco4)nc32)C1 (centres undefined) | -6.98
CC(SCC(=O)N(C)CC(=O)NC1CC1)c1cc(F)ccc1F (centres undefined) | 14.2
CCn1ccnc1CN1CCCN(C(=O)c2cnc(C)cn2)CC1 | -5.42
NCCn1cc(C(=O)NCc2ccccc2-n2cccn2)nn1 | -4.33
CC(C)c1nc2cc(NC(=O)Cn3ccc(=O)[nH]c3=O)ccc2o1 | -8.49
CCN1CCC2(CC1)CC(NCc1cccc(C)n1)c1ccccc1O2 (centres undefined) | -16.9
Cc1cc(-c2nn(C)c(Cl)c2CN2CCOCC(O)C2)no1 (centres undefined) | -11.6
CCn1ccnc1CN(C)Cc1nc(Cc2ccccc2F)no1 | 7.48
CN1CCN(S(C)(=O)=O)c2ccc(F)cc21 | -11.1
O=C(O)COc1ccccc1CN1CCCC1c1cnccn1 (centres undefined) | -9.06
CCCOC1CCCN(C(=O)Cn2cccc(C(F)(F)F)c2=O)C1 (centres undefined) | -6.8
O=C(c1ncoc1-c1ccco1)N1CCCN(c2ncccn2)CC1 | -12.9
O=C(O)[C@@]12CN(c3cnccn3)C[C@@H]1CN(C1CCCC1)C2 | -7.64
CSCCC(=O)N1CCC(CCC(=O)NCC2CCCO2)CC1 (centres undefined) | -13.2
CC(=O)N(Cc1noc(C)n1)C1CCN(CC(=O)N(C)C2CC2)C1 (centres undefined) | -2.89
COc1nc2c(cc1C(=O)NCCCc1nnc(N)s1)CCC2 | -1.23
C1CN(c2nc(C3CC3)ns2)CCS1 | -1.41
Cc1nc[nH]c1CN1CCC(CNC(=O)c2cccc3cnccc23)C1 (centres undefined) | -7.78
Cc1nnc(C[C@@H]2COC[C@H]3CN(C(=O)C4=CCCC4)C[C@@H]23)o1 | -13.7
O=C(Nc1ccccc1F)C1=NN(c2ccccc2)C(=O)CN1 | -4.94
CC(=O)N1CCC(n2nccc2-c2cnc(N3CCCC3)nc2)CC1 | -9
CCc1nnsc1-c1nc(C(C)C)nn1-c1ccc2c(c1)OCO2 | -5.86
CC(C)N1CCC(c2cnc(-c3cn[nH]c3)cn2)CC1 | 2.32

SMILES | cytotoxicity at 70.5 h [%]
CC(C)=CCCN1CCN(C)C2(CCC(=O)N(C)CC2)C1 (centres undefined) | -6.95
CCc1ccc(CNC(=O)NC2CCCc3c2cnn3CCO)s1 (centres undefined) | -2.75
CCCN1CCCC2(CCN(C(=O)CCCn3cncn3)C2)C1=O (centres undefined) | -4.88
O=C(NCCCn1ccnc1)NCC(c1ccco1)N1CCCCC1 (centres undefined) | 4.46
CCc1nnc(N[C@H](C)c2cccc(OC)c2)o1 | -20.2
CNC(=O)CNC(=O)CC1C(=O)NCCN1Cc1ccccc1C (centres undefined) | -5.79
COc1cc(CCC(=O)NC(C)C(=O)O)ccc1OCC(F)(F)F (centres undefined) | -13
COCCC1CCCCN1Cc1nc(Cc2cccc(F)c2)no1 (centres undefined) | -2.75
Cn1ccnc1C1CCCN(C(=O)c2cc(F)cc(F)c2)C1 (centres undefined) | -6.29
CCOCC(O)CN1CCN(C(=O)c2cnc3n[nH]c(C)c3c2)CC1 (centres undefined) | -2.39
c1ccc(-n2ccc(CNC3CCc4ncnn4C3)n2)cc1 (centres undefined) | -5.75
O=C(NCCNC(=O)C1CCCCC1)NCCn1cccc1 | -4.89
CC(=O)N[C@H]1CCN(c2nc(C)nc3c2c(C)nn3C)C1 | -8.71
O=C(NCC(O)c1ccc(F)cc1)C1CCN(C2CCCCC2)CC1 (centres undefined) | -7.05
CC(C)COC(=O)N1[C@@H](c2ccco2)[C@@H](CO)C[C@]12CCCCNC2=O | -9.55
CN(Cc1ccccc1)S(=O)(=O)N1C[C@H](C2CC2)[C@@H](N)C1 | -1.23
Cc1occc1C(=O)NCC(=O)N(C)CCCOc1ccccc1 | -1.18
Cc1cccc(NC(=O)[C@@H]2CCCN2Cc2nc(C)c(C)o2)n1 | -9.4
CNc1nc(C2CCN(C(=O)CC3CCCC3)C2)nc2c1CN(C)CC2 (centres undefined) | 8.17
CC(C)(CN1CCC2(CCOCC2)CC1)N1CCOCC1 | 9.42
CNC(=O)CN(C)C(=O)c1ccc(-c2nc(C)cs2)cc1 | -5.78
CCCn1cc(C(=O)NCCc2ccncc2)c(C)n1 | -6.81
